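How tested: cells in 96-well plates exposed to compound for 48 hours at five concentrations. GI50 is the concentration that inhibits growth by half. Definition used: TGI = concentration required for complete inhibition of growth.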
Key:
Experiment in all cases: NCI tumour cell line growth inhibition, 48 h
LOX IMVI melanoma = system: LOX IMVI melanoma
HOP-62 NSCLC = system: HOP-62 NSCLC
786-0 renal = system: 786-0 renal
NCI-H460 lung = system: NCI-H460 lung
NCI-H23 lung = system: NCI-H23 lung
OVCAR-5 ovarian = system: OVCAR-5 ovarian
HS 578T breast = system: HS 578T breast
NCI-H226 lung = system: NCI-H226 lung
UO-31 renal = system: UO-31 renal
OVCAR-4 ovarian = system: OVCAR-4 ovarian
NCI-H522 lung = system: NCI-H522 lung
SK-MEL-5 melanoma = system: SK-MEL-5 melanoma
SK-OV-3 ovarian = system: SK-OV-3 ovarian
K-562 leukemia = system: K-562 leukemia
HCC-2998 colon = system: HCC-2998 colon
HCT-116 colon = system: HCT-116 colon
M14 melanoma = system: M14 melanoma
BT-549 breast = system: BT-549 breast
T-47D breast = system: T-47D breast
RPMI-8226 leukemia = system: RPMI-8226 leukemia
MCF7 breast = system: MCF7 breast
U251 CNS = system: U251 CNS
UACC-62 melanoma = system: UACC-62 melanoma
DU-145 prostate = system: DU-145 prostate
A549 NSCLC = system: A549 NSCLC
HT29 colon = system: HT29 colon
SK-MEL-28 melanoma = system: SK-MEL-28 melanoma
OVCAR-8 ovarian = system: OVCAR-8 ovarian
HCT-15 colon = system: HCT-15 colon
KM12 colon = system: KM12 colon
SR leukemia = system: SR leukemia
SN12C renal = system: SN12C renal
OVCAR-3 ovarian = system: OVCAR-3 ovarian
RXF 393 renal = system: RXF 393 renal
HOP-92 NSCLC = system: HOP-92 NSCLC
EKVX NSCLC = system: EKVX NSCLC
SK-MEL-2 melanoma = system: SK-MEL-2 melanoma
TK-10 renal = system: TK-10 renal
SNB-75 CNS = system: SNB-75 CNS
MDA-MB-231 breast = system: MDA-MB-231 breast
SF-295 CNS = system: SF-295 CNS
SW-620 colon = system: SW-620 colon
PC-3 prostate = system: PC-3 prostate
COLO 205 colon = system: COLO 205 colon
ACHN renal = system: ACHN renal
CCRF-CEM leukemia = system: CCRF-CEM leukemia
UACC-257 melanoma = system: UACC-257 melanoma
MDA-MB-435 = system: MDA-MB-435
A498 renal = system: A498 renal
SF-268 CNS = system: SF-268 CNS
SNB-19 CNS = system: SNB-19 CNS
CAKI-1 renal = system: CAKI-1 renal
NCI/ADR-RES ovarian = system: NCI/ADR-RES ovarian
IGROV1 ovarian = system: IGROV1 ovarian
MALME-3M melanoma = system: MALME-3M melanoma
HL-60(TB) leukemia = system: HL-60(TB) leukemia

SMILES: COc1cc(OC)cc(Oc2nc3cc(N)cc(N)c3nc2-c2ccccc2)c1
- GI50 (LOX IMVI melanoma): 2.95 µM
- TGI (LOX IMVI melanoma): 13 µM
- GI50 (HOP-62 NSCLC): 2.14 µM
- TGI (HOP-62 NSCLC): 12.8 µM
- TGI (786-0 renal): 11.4 µM
- GI50 (NCI-H460 lung): 2.92 µM
- TGI (NCI-H460 lung): 12.5 µM
- GI50 (NCI-H23 lung): 1.69 µM
- TGI (NCI-H23 lung): 12.7 µM
- GI50 (OVCAR-5 ovarian): 3.24 µM
- TGI (OVCAR-5 ovarian): 16.4 µM
- GI50 (HS 578T breast): 1.32 µM
- TGI (HS 578T breast): 4.19 µM
- GI50 (NCI-H226 lung): 6.55 µM
- TGI (NCI-H226 lung): 43 µM
- TGI (UO-31 renal): 15.3 µM
- GI50 (OVCAR-4 ovarian): 2.89 µM
- TGI (OVCAR-4 ovarian): 16.2 µM
- GI50 (NCI-H522 lung): 0.891 µM
- TGI (NCI-H522 lung): 4.31 µM
- GI50 (SK-MEL-5 melanoma): 1.89 µM
- TGI (SK-MEL-5 melanoma): 6.47 µM
- GI50 (SK-OV-3 ovarian): 3.49 µM
- TGI (SK-OV-3 ovarian): 16.3 µM
- GI50 (K-562 leukemia): 3.77 µM
- TGI (K-562 leukemia): 32.4 µM
- GI50 (HCC-2998 colon): 2.52 µM
- TGI (HCC-2998 colon): 13.7 µM
- GI50 (HCT-116 colon): 2.36 µM
- TGI (HCT-116 colon): 10.1 µM
- GI50 (M14 melanoma): 1.6 µM
- TGI (M14 melanoma): 7.76 µM
- GI50 (BT-549 breast): 1.49 µM
- TGI (BT-549 breast): 6.92 µM
- GI50 (T-47D breast): 2.37 µM
- TGI (T-47D breast): 9.13 µM
- TGI (RPMI-8226 leukemia): 8.42 µM
- GI50 (MCF7 breast): 1.69 µM
- TGI (MCF7 breast): 4.53 µM
- GI50 (U251 CNS): 2.6 µM
- TGI (U251 CNS): 10.8 µM
- GI50 (UACC-62 melanoma): 4.04 µM
- TGI (UACC-62 melanoma): 18 µM
- TGI (DU-145 prostate): 25.1 µM
- GI50 (A549 NSCLC): 2.88 µM
- TGI (A549 NSCLC): 13.2 µM
- GI50 (HT29 colon): 4.37 µM
- TGI (HT29 colon): 17.8 µM
- GI50 (SK-MEL-28 melanoma): 3.18 µM
- TGI (SK-MEL-28 melanoma): 15.5 µM
- GI50 (OVCAR-8 ovarian): 2.9 µM
- TGI (OVCAR-8 ovarian): 16.3 µM
- GI50 (HCT-15 colon): 2.04 µM
- TGI (HCT-15 colon): 12.4 µM
- GI50 (KM12 colon): 1.03 µM
- TGI (KM12 colon): 6.07 µM
- GI50 (SR leukemia): 1.85 µM
- TGI (SR leukemia): 28.9 µM
- TGI (SN12C renal): 22.3 µM
- GI50 (OVCAR-3 ovarian): 2.22 µM
- TGI (OVCAR-3 ovarian): 8.65 µM
- TGI (RXF 393 renal): 4.41 µM
- GI50 (HOP-92 NSCLC): 1.36 µM
- TGI (HOP-92 NSCLC): 8.9 µM
- GI50 (EKVX NSCLC): 3.77 µM
- TGI (EKVX NSCLC): 19.3 µM
- GI50 (SK-MEL-2 melanoma): 2.29 µM
- TGI (SK-MEL-2 melanoma): 10.2 µM
- TGI (TK-10 renal): 8.44 µM
- GI50 (SNB-75 CNS): 0.127 µM
- TGI (SNB-75 CNS): 2.67 µM
- GI50 (MDA-MB-231 breast): 4.02 µM
- TGI (MDA-MB-231 breast): 21.8 µM
- GI50 (SF-295 CNS): 2.21 µM
- TGI (SF-295 CNS): 8.49 µM
- GI50 (SW-620 colon): 2.26 µM
- TGI (SW-620 colon): 10.2 µM
- TGI (PC-3 prostate): 17.4 µM
- GI50 (COLO 205 colon): 10.6 µM
- TGI (COLO 205 colon): 22.4 µM
- TGI (ACHN renal): 17.9 µM
- GI50 (CCRF-CEM leukemia): 1.97 µM
- TGI (CCRF-CEM leukemia): 8.67 µM
- GI50 (UACC-257 melanoma): 2.19 µM
- TGI (UACC-257 melanoma): 12.3 µM
- GI50 (MDA-MB-435): 0.392 µM
- TGI (MDA-MB-435): 1.83 µM
- TGI (A498 renal): 14.4 µM
- GI50 (SF-268 CNS): 1.75 µM
- TGI (SF-268 CNS): 7.13 µM
- GI50 (SNB-19 CNS): 2.49 µM
- TGI (SNB-19 CNS): 12.5 µM
- TGI (CAKI-1 renal): 24.1 µM
- GI50 (NCI/ADR-RES ovarian): 1.13 µM
- TGI (NCI/ADR-RES ovarian): 3.85 µM
- GI50 (IGROV1 ovarian): 2.62 µM
- TGI (IGROV1 ovarian): 12.3 µM
- GI50 (MALME-3M melanoma): 0.426 µM
- TGI (MALME-3M melanoma): 5.09 µM
- GI50 (HL-60(TB) leukemia): 3.07 µM
- TGI (HL-60(TB) leukemia): 25.9 µM

— PubChem BioAssay (NCI)
